Measured values reported in EP1093379B1, “USE OF INHIBITORS OF PROTEIN KINASE C EPSILON TO TREAT PAIN” (The Regents of the University of California, priority 1998, dated 2007).

Tests used:
[1] = tested on: prolonged PGE2-induced hyperalgesia; assay: Chronic inflammatory pain model: prolonged hyperalgesia in carrageenan-sensitized rats (Randall-Selitto paw-withdrawal test); assay type: in vivo
From the text: In order to investigate the role, if any, of PKCε in chronic inflammatory pain, the following model system for chronic inflammatory pain was developed. Rats received intradermal hind paw injections of carrageenan, an inflammatory agent. […] This was considered an acute response to the carrageenan-induced inflammation. Although administration of Prostaglandin E2 ("PGE2"), 5-hydroxytryptamine ("5-HT," serotonin) or CGS-21680 (an adenosine A2-selective receptor agonist) normally causes untreated rats (that is, rats that have not received carrageenan injections) to experience hyperalgesia lasting up to 6 hours, the hyperalgesia experienced by carrageenan-sensitized rats following administration of any one of these substances lasted up to 24 hours.
The prolonged PGE2-induced hyperalgesia normally seen in carrageenan-sensitized rats was inhibited by administration of BIM or εV1-2.
To examine whether protein kinase C modulates the processes by which a brief inflammatory event causes prolonged hyperalgesia many days later, rats received carrageenan and 1µg BIM injections at the same time. Hyperalgesia was measured 72 hours later, when the rats were treated PGE2. […] Therefore, administration of an inhibitor of PKC either at approximately the same time as the inflammatory agent giving rise to chronic, prolonged hyperalgesia or at about the same time as the hyperalgesia-inducing stimulus can lessen such chronic hyperalgesia.

[2] = tested on: PGE2-induced hyperalgesia; assay: PGE2-induced mechanical hyperalgesia, paw-withdrawal threshold; assay type: in vivo, rat; conditions: same dose as for epinephrine: BIM 1 µg, WIPTIDE 100 ng
Method: The roles of PKC, protein kinase A ("PKA") and the µ-opioid receptor in mediating epinephrine-induced hyperalgesia were assessed by measuring the effects of: Rp-adenosine 3', 5'-cyclic monophosphate ("Rp-cAMPs") and WIPTIDE, both inhibitors of PKA; SQ22536, an inhibitor of adenylyl cyclase, an enzyme activated by PKA; bisindolymaleimide ("BIM"), a nonselective inhibitor of PKC isozymes; and [D-Ala^2,N-Me-Phe^4,Gly^5-ol]-enkephalin ("DAMGO"), p-opioid receptor agonist. The dose for each inhibitor was 1µg, except for WIPTIDE, which was administered in a 100ng dose. DAMGO was co-injected with epinephrine whereas the other inhibitors were applied 15 minutes prior to epinephrine injection. […] TABLE 1: Percentage decrease in nociceptive threshold in response to epinephrine, PGE2 or isoproterenol (each 100 ng) and effects of DAMGO, SQ22536, BIM, Rp-cAMPs (all 1 µg) or WIPTIDE (0.1 µg). A large numeric value means more hyperalgesia.
For mechanical nociceptive testing, the nociceptive flexion reflex was quantified using an Ugo Basile analgesymeter that applies a constantly increasing force measured in grams (Stoelting, Chicago, IL; K. O. Aley, J. D. Levine, J. Neurosci. 17, 8018-23 (1997)). The mean basal mechanical threshold for rats used in these experiments was 105.3+/-2.8 grams. The effects of hyperalgesia-inducing agents epinephrine (100ng) and PGE2 (100ng) on mechanical nociceptive thresholds were determined by measuring paw withdrawal frequencies at 15, 20, and 25 minutes after administration of the hyperalgesic agent and then calculating the mean of these three readings.

TTX-RINa = assay type: cell-based, rat
[3] = tested on: diabetes-induced hyperalgesia; assay: Streptozotocin diabetes model, diabetes-induced hyperalgesia to mechanical stimuli; assay type: in vivo, Sprague-Dawley rats; conditions: four weeks after streptozotocin 70 mg/kg; intradermal sterile water then 1 µg
Method: Persons with uncontrolled or poorly controlled diabetes frequently experience hyperalgesia. The role of PKCε in diabetic neuropathy was examined in a model of diabetes in which male Sprague-Dawley rats receive subcutaneous injection of streptozotocin (70 mg/kg), a pancreatic β-cell toxin. These rats display hyperglycemia and glucosuria within 24 hours after the injection and show decreased nociceptive thresholds in response to mechanical stimuli administered by Ugo Basile analgesymeter in the hind paw after one week (Ahlgren, S.C. et al, J. Neurophysiology, 68, 2077-2085 (1992); Ahlgren, S.C. and Levine, J.D., Neuroscience 52, 1049-1055 (1993)). Four weeks after the streptozotocin injection, each rat received no treatment (n=8) or an intradermal injection of sterile water followed by a intradermal injections of (1) 1 µg bisindolymaleimide, a protein kinase C inhibitor (n=4; labeled "BIM" on Figure 12B), (2) 1 µg εV1-2, a PKCε inhibitory peptide (n=8; labeled "PKCεI" on Figure 12B), or (3) 1 µg S-VεV1-2, a scrambled version of the εV1-2 peptide (n=4; labeled "PCKε1 SCR" on Figure 12B) and were subsequently exposed to mechanical stimuli.

[4] = tested on: isoproterenol-induced hyperalgesia; assay: Isoproterenol-induced mechanical hyperalgesia, paw-withdrawal threshold; assay type: in vivo, rat; conditions: intradermal; BIM 1 µg, WIPTIDE 100 ng; propranolol dose not given
Method: To examine the role of β-AR in epinephrine-induced hyperalgesia, propranolol, a β-AR antagonist, and isoproterenol, a selective β-AR agonist, were administered by intradermal injection.
The roles of PKC, protein kinase A ("PKA") and the µ-opioid receptor in mediating epinephrine-induced hyperalgesia were assessed by measuring the effects of: Rp-adenosine 3', 5'-cyclic monophosphate ("Rp-cAMPs") and WIPTIDE, both inhibitors of PKA; SQ22536, an inhibitor of adenylyl cyclase, an enzyme activated by PKA; bisindolymaleimide ("BIM"), a nonselective inhibitor of PKC isozymes; and [D-Ala^2,N-Me-Phe^4,Gly^5-ol]-enkephalin ("DAMGO"), p-opioid receptor agonist. The dose for each inhibitor was 1µg, except for WIPTIDE, which was administered in a 100ng dose. […] A large numeric value means more hyperalgesia.

[5] = 1µg at the same time as carrageenan
[6] = 1µM epinephrine with 100µM BIM v. epinephrine alone

CN(C)CCCn1cc(C2=C(c3c[nH]c4ccccc34)C(=O)NC2=O)c2ccccc21 [BIM, bisindolymaleimide I]
effect on acute hyperalgesia normally induced by carrageenan exposure [1, 5]: attenuated
effect on prolonged hyperalgesia on PGE2 72 or more hours after carrageenan exposure [1, 5]: attenuated
effect on prolonged PGE2-induced hyperalgesia in carrageenan-sensitized rats ([1]; 1µg several days after the carrageenan injection, then PGE2): inhibited
effect on PGE2-induced hyperalgesia [2]: had no effect
mean peak current increase (TTX-RINa; [6]): 32%
number of neurons responsive to epinephrine (TTX-RINa; [6]): 5 out of 11
effect on epinephrine-induced potentiation of TTX-RINa (TTX-RINa; 1µM epinephrine, 2µM propranolol, 5µM phentolamine, 100µM Rp-cAMPs, 100µM BIM): significantly decreased
effect on diabetes-induced decrease in nociceptive threshold [3]: markedly reduced
effect on isoproterenol-induced hyperalgesia [4]: significantly attenuated
